Test results reported in ChEMBL document CHEMBL3867466, “Synthesis and biological evaluation of novel 2,4,5-triarylimidazole-1,2,3-triazole derivatives via click chemistry as α-glucosidase inhibitors” (Bioorg Med Chem Lett, 2016).

target: T1, Alpha-glucosidase MAL12 (Saccharomyces cerevisiae S288c, UniProt P53341); assay: Inhibition of bakers yeast alpha-glucosidase using p-nitrophenyl-alpha-D-glucopyranoside as substrate incubated for 15 mins followed by substrate addition measured after 30 mins by spectrophotometric analysis
T1 sequence (P53341 whole entry): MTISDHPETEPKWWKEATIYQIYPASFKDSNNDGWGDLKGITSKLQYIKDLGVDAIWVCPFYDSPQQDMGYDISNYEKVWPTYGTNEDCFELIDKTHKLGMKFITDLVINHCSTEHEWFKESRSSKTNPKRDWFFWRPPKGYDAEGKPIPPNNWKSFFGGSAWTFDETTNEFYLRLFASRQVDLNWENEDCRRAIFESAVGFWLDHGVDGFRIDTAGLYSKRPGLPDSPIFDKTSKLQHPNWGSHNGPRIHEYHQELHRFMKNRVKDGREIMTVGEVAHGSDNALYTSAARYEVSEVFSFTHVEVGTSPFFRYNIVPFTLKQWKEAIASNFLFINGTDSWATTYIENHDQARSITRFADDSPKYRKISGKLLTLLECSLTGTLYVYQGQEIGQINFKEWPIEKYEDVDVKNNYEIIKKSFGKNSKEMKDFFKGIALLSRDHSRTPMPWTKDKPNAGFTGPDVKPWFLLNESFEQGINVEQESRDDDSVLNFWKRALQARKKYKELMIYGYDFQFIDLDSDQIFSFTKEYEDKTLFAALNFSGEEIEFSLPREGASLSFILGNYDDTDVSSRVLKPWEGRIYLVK

IC50 [µM]	Structure (SMILES)
29.2	COc1cc(-c2nc(-c3ccccc3)c(-c3ccccc3)n2Cc2cn(CC(=O)Nc3ccc(Cl)cc3)nn2)cc(OC)c1OC
38.5	Cc1ccc(NC(=O)Cn2cc(Cn3c(-c4cccc(Cl)c4)nc(-c4ccccc4)c3-c3ccccc3)nn2)c(C)c1
27	COc1ccccc1-c1nc(-c2ccccc2)c(-c2ccccc2)n1Cc1cn(CC(=O)Nc2ccc(C)cc2)nn1
22	O=C(Cn1cc(Cn2c(-c3ccc(Br)cc3)nc(-c3ccccc3)c2-c2ccccc2)nn1)Nc1ccc(F)cc1
36.9	CCOc1ccccc1NC(=O)Cn1cc(Cn2c(-c3ccccc3F)nc(-c3ccccc3)c2-c2ccccc2)nn1
32.1	Cc1ccccc1NC(=O)Cn1cc(Cn2c(-c3cccc(F)c3)nc(-c3ccccc3)c2-c2ccccc2)nn1
19.6	CCOc1ccc(NC(=O)Cn2cc(Cn3c(-c4cccc(Br)c4)nc(-c4ccccc4)c3-c3ccccc3)nn2)cc1
30.1	Cc1ccc(NC(=O)Cn2cc(Cn3c(-c4cccc(F)c4)nc(-c4ccccc4)c3-c3ccccc3)nn2)c(C)c1
24.2	COc1ccc(NC(=O)Cn2cc(Cn3c(-c4cccs4)nc(-c4ccccc4)c3-c3ccccc3)nn2)cc1
20.2	COC(=O)c1ccc(-c2nc(-c3ccccc3)c(-c3ccccc3)n2Cc2cn(CC(=O)Nc3cc(Cl)ccc3Cl)nn2)cc1
29.3	Cc1ccccc1NC(=O)Cn1cc(Cn2c(-c3ccc(Br)cc3)nc(-c3ccccc3)c2-c2ccccc2)nn1
17	CCOc1ccc(NC(=O)Cn2cc(Cn3c(-c4ccc(C(=O)OC)cc4)nc(-c4ccccc4)c3-c3ccccc3)nn2)cc1
22.8	O=C(Cn1cc(Cn2c(-c3ccc(F)cc3)nc(-c3ccccc3)c2-c2ccccc2)nn1)Nc1ccc(Cl)cc1Cl
21.6	COc1ccc(-c2nc(-c3ccccc3)c(-c3ccccc3)n2Cc2cn(CC(=O)Nc3ccc(Cl)cc3Cl)nn2)cc1OC
48.2	COc1ccc(NC(=O)Cn2cc(Cn3c(-c4cccc(Cl)c4)nc(-c4ccccc4)c3-c3ccccc3)nn2)cc1
44.2	CCOc1ccc(NC(=O)Cn2cc(Cn3c(-c4cccc(Cl)c4)nc(-c4ccccc4)c3-c3ccccc3)nn2)cc1
20.3	COc1cc(-c2nc(-c3ccccc3)c(-c3ccccc3)n2Cc2cn(CC(=O)Nc3cccc(C)c3)nn2)cc(OC)c1OC

Structure (SMILES)	IC50 [µM]
CCOc1ccccc1NC(=O)Cn1cc(Cn2c(-c3cccc(Br)c3)nc(-c3ccccc3)c2-c2ccccc2)nn1	15.2

target: T1, Alpha-glucosidase MAL12; assay: Non-competitive inhibition of bakers yeast alpha-glucosidase using p-nitrophenyl-alpha-D-glucopyranoside as substrate by Lineweaver-Burk plot analysis

Structure (SMILES)	Ki [µM]
CCOc1ccccc1NC(=O)Cn1cc(Cn2c(-c3cccc(Br)c3)nc(-c3ccccc3)c2-c2ccccc2)nn1	14.8
